Measurements reported in PMC9762708 (Annals of Surgery, 2022).
Residues, ends and D or L forms follow the SMILES beside them.

Key:
Assay in all cases: MIC of phase IIb clinical isolates
Assay type in all cases: cell-based
[1] = test system: Pseudomonas aeruginosa; conditions: 74 strains
[2] = test system: Enterobacter cloacae; conditions: 63 strains
[3] = test system: Staphylococcus epidermidis; conditions: 126 strains
[4] = test system: Klebsiella pneumoniae; conditions: 45 strains
[5] = test system: Acinetobacter baumannii; conditions: 31 strains
[6] = test system: Escherichia coli; conditions: 22 strains
[7] = test system: Enterococcus faecalis; conditions: 25 strains
[8] = test system: Staphylococcus haemolyticus; conditions: 23 strains
[9] = test system: Staphylococcus aureus; conditions: 320 strains

Row | SMILES | Strains Resistant to Control Antibiotics [1] | Strains Resistant to Control Antibiotics [2] | Strains Resistant to Control Antibiotics [3] | Strains Resistant to Control Antibiotics [4] | Strains Resistant to Control Antibiotics [5] | Strains Resistant to Control Antibiotics [6] | Strains Resistant to Control Antibiotics [7] | Strains Resistant to Control Antibiotics [8] | Strains Resistant to Control Antibiotics [9] | MIC90 [1] [µg/mL] | MIC50 [3] [µg/mL] | MIC90 [3] [µg/mL] | MIC50 [6] [µg/mL] | MIC90 [6] [µg/mL] | MIC50 [7] [µg/mL] | MIC90 [7] [µg/mL] | MIC50 [8] [µg/mL] | MIC90 [8] [µg/mL]
1 | CO/N=C(\C(=O)N[C@@H]1C(=O)N2C(C(=O)O)=C(CSc3nc(=O)c(=O)[nH]n3C)CS[C@H]12)c1csc(N)n1 [Ceftriaxone, ceftriaxone] | 74 (100) n (%) | 8 n (%) | No | 18 (40.0) n (%) | 14 (45.2) n (%) | 13 (59.1) n (%) | 25 (100) n (%) | No |  |  |  |  |  |  |  |  |  | 
2 | C[C@@H](O)[C@H]1C(=O)N2C(C(=O)O)=C(SCCN=CN)C[C@H]12 [Imipenem, imipenem] | 2 n (%) | 8 n (%) |  | 1 n (%) | 15 (48.4) n (%) | 0 n (%) |  |  |  |  |  |  |  |  |  |  |  | 
3 | C[C@H]1COc2c(N3CCN(C)CC3)c(F)cc3c(=O)c(C(=O)O)cn1c23 [Levofloxacin, levofloxacin] | 8 n (%) | 2 n (%) | 41 (32.5) n (%) | 14 (31.1) n (%) | 5 n (%) | 13 (59.1) n (%) | 2 n (%) | 14 (60.9) n (%) | 56 (17.5) n (%) |  |  |  |  |  |  |  |  | 
4 | CC[C@H](C)[C@H](NC(=O)[C@H](C)NC(=O)[C@H](CCCCN)NC(=O)[C@H](CC(C)C)NC(=O)[C@H](C)NC(=O)[C@@H](NC(=O)[C@H](Cc1c[nH]cn1)NC(=O)[C@H](CC(C)C)NC(=O)[C@@H](NC(=O)[C@@H](NC(=O)[C@H](CCCCN)NC(=O)[C@H](C)NC(=O)[C@H](C)NC(=O)[C@H](CO)NC(=O)[C@H](CCCCN)NC(=O)[C@H](Cc1ccccc1)NC(=O)[C@@H](NC(=O)[C@H](CCCCN)NC(=O)[C@H](CC(C)C)NC(=O)[C@H](Cc1ccccc1)NC(=O)[C@H](CO)NC(=O)[C@H](CCCCN)NC(=O)[C@H](Cc1c[nH]c2ccccc12)NC(=O)[C@H](CCCCN)NC(C)=O)[C@@H](C)O)[C@@H](C)O)C(C)C)[C@@H](C)O)C(=O)N[C@@H](CO)C(=O)N[C@@H](CO)C(N)=O [PL-5, Peceleganan] (Ac-KWKSFLKTFKSAAKTVLHTALKAISS-NH2; N-terminus and C-terminus assumed) |  |  |  |  |  |  |  |  |  | 8 | 4 | 4 | 8 | 16 | 64 | 128 | 2 | 8
5 | CN[C@H](CC(C)C)C(=O)N[C@H]1C(=O)N[C@@H](CC(N)=O)C(=O)N[C@H]2C(=O)N[C@H]3C(=O)N[C@H](C(=O)N[C@H](C(=O)O)c4cc(O)cc(O)c4-c4cc3ccc4O)[C@H](O)c3ccc(c(Cl)c3)Oc3cc2cc(c3O[C@@H]2O[C@H](CO)[C@@H](O)[C@H](O)[C@H]2O[C@H]2C[C@](C)(N)[C@H](O)[C@H](C)O2)Oc2ccc(cc2Cl)[C@H]1O [Vancomycin, vancomycin] |  |  | 0 n (%) |  |  |  | 0 n (%) | 0 n (%) | 0 n (%) |  |  |  |  |  |  |  |  | 
